What was measured:
[1] = system: SAMD9 promoter; experiment: High-throughput luciferase reporter screen in HeLa line stably expressing 585 bp SAMD9 promoter fragment; type: cell-based, human; details: IFN-γ 10 ng/ml for 24 hours (FIG. 1B)
[2] = system: SAMD9 promoter; experiment: Dual luciferase reporter assay in HeLa cells transiently transfected with SAMD9 promoter construct; type: cell-based, human; details: transient transfection, IFN-γ 10 ng/ml, 48 hours after transfection (FIG. 1A)
Text: SAMD9 promoter fragments cloned into pGL3 as previously described [Hershkovitz, D. et al. (2011) J Invest Dermatol 131: 662-9], were digested with KpnI and XhoI and subcloned into pGL4.17 [luc2/Neo] (Promega). The expression vector pGL4.17 encodes the luciferase reporter gene luc2 (Photinuspyralis) and contains a mammalian selectable marker for neomycin resistance. For transient transfection, SAMD9 promoter-luciferase constructs were transfected into HeLa cells using lipofectamine 2000 (Invitrogen, Carlsbad, CA) according to the manufacturer's instructions.
Cellular protein was extracted by adding 20 μl of Promega Lysis Buffer (PLB) (Promega) to each sample and incubated for a period of 15 minutes. Cell lysate was analyzed in a 96-well flat white plate (Greiner Bio-One, United Kingdom) where 100 μl of Luciferase Assay Reagent II (LAR II) (Promega) was added to each sample. Luminescence was ascertained using the Infinite M200 multimode microplate reader (Tecan Ltd, Minnedorf, Switzerland). After the initial reading, 100 μl of Stop & GloR Reagent (Promega) were dispensed into tested wells and Renilla luciferase levels were tested. The assay was completed after Luciferase levels were normalized to Renilla levels.
SAMD9 promoter activity was first analyzed using a luciferase reporter assay in HeLa cells. […]

Substance: IFN-γ: interferon-gamma, previously identified as a strong inducer of SAMD9 expression
- Response of stable SAMD9 promoter-luciferase HeLa cell line [1]: respond robustly
- SAMD9 promoter activity (luciferase) [2]: significantly induced
